Experimental data published in US6413782B1, “Methods of manufacturing high-throughput screening systems” (priority 1996, dated 2002).

Target: β-galactosidase (Escherichia coli, UniProt P00722)
Assay: Enzyme inhibitor screen in planar chip format (continuous flow, fluorogenic substrate FDG)
Type: biochemical
Settings: IPTG 200 mM in inhibitor well; β-Galactosidase 180 U/ml; substrate FDG 400 μM; 20 mM Tris pH 8.5; versus buffer control
Procedure: The numbers adjacent the channels represent the lengths of each channel in millimeters. Two voltage states were applied to the ports of the chip. […] A control experiment was also run in which buffer was placed into the inhibitor well.
Enzyme: β-Galactosidase (180 U/ml in 50 mM Tris/ 300 μg/ml BSA
Substrate: Fluorescein-digalactoside (FDG) 400 μM
Buffer: 20 mM Tris, pH 8.5
Enzyme and substrate were continually pumped through the main channel from their respective ports under both voltage states. Inhibitor or Buffer were delivered into the main channel alternately from their respective wells by alternating between voltage state 1 and voltage state 2. When no inhibitor was present at the detection end of the main channel, a base line level of fluorescent product was produced. […] FIG. 9B a superposition of the two data segments from FIG. 9A, directly comparing the inhibitor data with control (buffer) data.

Sequence of β-galactosidase (P00722 2-1024): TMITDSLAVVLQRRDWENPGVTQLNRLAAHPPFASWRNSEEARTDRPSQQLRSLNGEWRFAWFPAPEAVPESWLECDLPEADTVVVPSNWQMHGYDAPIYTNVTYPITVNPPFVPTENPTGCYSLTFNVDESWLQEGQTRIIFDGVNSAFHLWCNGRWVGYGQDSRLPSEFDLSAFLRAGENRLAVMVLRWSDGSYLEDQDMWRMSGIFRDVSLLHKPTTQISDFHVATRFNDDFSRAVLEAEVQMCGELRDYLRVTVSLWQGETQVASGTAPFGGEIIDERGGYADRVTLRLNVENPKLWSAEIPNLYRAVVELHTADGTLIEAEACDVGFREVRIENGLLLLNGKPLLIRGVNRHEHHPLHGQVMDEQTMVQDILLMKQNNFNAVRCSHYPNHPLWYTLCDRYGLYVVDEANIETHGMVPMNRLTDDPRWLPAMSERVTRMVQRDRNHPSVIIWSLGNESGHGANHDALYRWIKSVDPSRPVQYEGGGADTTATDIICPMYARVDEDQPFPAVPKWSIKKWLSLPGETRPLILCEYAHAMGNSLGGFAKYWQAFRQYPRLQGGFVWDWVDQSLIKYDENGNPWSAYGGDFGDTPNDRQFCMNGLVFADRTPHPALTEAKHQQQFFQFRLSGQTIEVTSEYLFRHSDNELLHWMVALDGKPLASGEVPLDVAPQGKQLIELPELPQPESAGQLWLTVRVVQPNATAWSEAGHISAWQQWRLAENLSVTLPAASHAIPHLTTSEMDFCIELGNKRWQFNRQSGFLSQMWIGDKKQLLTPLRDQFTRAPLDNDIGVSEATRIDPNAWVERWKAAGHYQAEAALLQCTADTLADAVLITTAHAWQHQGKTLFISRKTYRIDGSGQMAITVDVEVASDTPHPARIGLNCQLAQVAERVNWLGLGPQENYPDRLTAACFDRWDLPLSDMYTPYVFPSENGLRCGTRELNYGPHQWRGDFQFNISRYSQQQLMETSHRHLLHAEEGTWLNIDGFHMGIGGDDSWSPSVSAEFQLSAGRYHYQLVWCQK

CC(C)S[C@@H]1O[C@H](CO)[C@H](O)[C@H](O)[C@H]1O [IPTG]
fluorescent signal upon introduction of inhibitor (inhibition of the enzyme/substrate interaction): greatly reduced
